The results in this text go back to patent publication US20250115597A1, “TYK2 INHIBITORS AND COMPOSITIONS AND METHODS THEREOF” (LYNK PHARMACEUTICALS CO. LTD., priority 2021, published 2025).

Each structure is given as a SMILES string.

The test has as its target T1, Ba/F3-FL-TYK2-P760L cells (Homo sapiens, UniProt P29597, P760L, cells depend on it).
T1 construct: BaF3-FL-T2P760L (nM)
As to the kind of experiment: Anti-proliferative assay, Ba/F3-FL-TYK2-P760L cells (Cell-Titer Glo). The format is cell-based. The settings on record: 72 h, read-out: BaF3-FL-T2P760L IC50. Here is the method:
Anti-Proliferative Assay Dimerization domain of Tel protein fused with JAK kinase domain was permanently transduced into Ba/F3 cells, whose proliferation is dependent on JAK activity in the absence of IL-3 induction. These engineered Ba/F3 cells (Ba/F3-FL-TYK2-[…], Ba/F3-TEL-TYK2 and Ba/F3-TEL-JAK2) were used to monitor JAK inhibitory activities of the compounds in the cellular. […] Cells were seeded at 2000/well of white flat bottom 96-well plates. The well containing medium only was used as background control. After 24 h growth, cells were treated with compounds. The test compounds were dissolved in DMSO to a stock concentration of 20 mM. 3-fold serially diluted compounds for 9 concentrations with top concentration of 20 μM was added into the each well. […] The cells continued to grow at 37° C. in 5% CO2 for 72 h after compound treatment. The viability was measured by cellular ATP determination using the Cell-Titer Glo luciferase reagent (Promega). The Luminescence value was recorded by a multi-label reader Envision (PerkinElmer).

T1 sequence (P29597 whole entry P760L): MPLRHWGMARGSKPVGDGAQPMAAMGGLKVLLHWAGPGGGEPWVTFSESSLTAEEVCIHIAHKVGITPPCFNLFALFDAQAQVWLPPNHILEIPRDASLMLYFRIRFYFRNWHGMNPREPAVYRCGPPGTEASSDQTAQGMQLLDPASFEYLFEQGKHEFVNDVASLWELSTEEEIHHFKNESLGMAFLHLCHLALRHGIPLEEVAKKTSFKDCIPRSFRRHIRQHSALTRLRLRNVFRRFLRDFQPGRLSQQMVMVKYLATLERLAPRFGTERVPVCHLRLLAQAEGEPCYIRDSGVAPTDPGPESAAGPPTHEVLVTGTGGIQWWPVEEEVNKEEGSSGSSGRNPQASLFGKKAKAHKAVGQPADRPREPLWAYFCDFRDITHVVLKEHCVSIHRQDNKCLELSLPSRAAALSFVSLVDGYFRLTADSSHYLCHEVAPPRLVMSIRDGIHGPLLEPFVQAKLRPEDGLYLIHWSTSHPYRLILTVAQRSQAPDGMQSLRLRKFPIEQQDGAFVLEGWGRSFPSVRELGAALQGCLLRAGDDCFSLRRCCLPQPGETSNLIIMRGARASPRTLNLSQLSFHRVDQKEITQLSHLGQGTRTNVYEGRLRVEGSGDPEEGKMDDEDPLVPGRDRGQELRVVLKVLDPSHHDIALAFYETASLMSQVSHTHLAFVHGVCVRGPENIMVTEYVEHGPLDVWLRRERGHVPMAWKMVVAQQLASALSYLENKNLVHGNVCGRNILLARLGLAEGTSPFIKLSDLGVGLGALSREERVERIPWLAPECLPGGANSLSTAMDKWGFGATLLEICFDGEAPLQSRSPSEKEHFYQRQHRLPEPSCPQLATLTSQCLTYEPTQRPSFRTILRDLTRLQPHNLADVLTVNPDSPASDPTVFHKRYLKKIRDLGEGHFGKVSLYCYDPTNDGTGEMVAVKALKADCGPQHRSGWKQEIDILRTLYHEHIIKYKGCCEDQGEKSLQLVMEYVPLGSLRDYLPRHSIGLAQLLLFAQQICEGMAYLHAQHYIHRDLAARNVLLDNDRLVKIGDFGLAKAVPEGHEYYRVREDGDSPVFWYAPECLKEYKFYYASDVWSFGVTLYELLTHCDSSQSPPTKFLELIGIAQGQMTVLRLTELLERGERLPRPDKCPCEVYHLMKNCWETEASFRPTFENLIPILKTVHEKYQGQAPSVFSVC

With `CNC(=O)c1cnc(NC(=O)C2CC2)cc1Nc1cn(C)c2ncn([C@H](C)C(F)(F)F)c(=O)c12` (single isomer, unassigned) [Example 234A, (R*)-6-(cyclopropanecarboxamido)-N-(methyl-d3)-4-((7-methyl-4-oxo-3-(1,1,1-trifluoropropan-2-yl)-4,7-dihydro-3H-pyrrolo[2,3-d]pyrimidin-5-yl)amino)nicotinamide], the GI50 was 96.2 nM.
The result for `CNC(=O)c1nnc(NC(=O)C2CC2)cc1Nc1cccc2cc[nH]c(=O)c12` [Example 26, 6-(Cyclopropanecarboxamido)-N-methyl-4-((1-oxo-1,2-dihydroisoquinolin-8-yl)amino)pyridazine-3-carboxamide] reads above 20000 nM.
The value for `[2H]C([2H])([2H])NC(=O)c1cnc(NC(=O)C2CC2)cc1Nc1ccc2cnn(C([2H])([2H])[2H])c2c1OC` [Example 140, 6-(Cyclopropanecarboxamido)-4-((7-methoxy-1-(methyl-d3)-1H-indazol-6-yl)amino)-N-(methyl-d3)nicotinamide] was 82.4 nM; that for `[2H]C([2H])([2H])NC(=O)c1cnc(NC(=O)C2CC2)cc1Nc1ccc2cnn(C3CC3)c2c1OC` [Example 143, 6-(Cyclopropanecarboxamido)-4-((1-cyclopropyl-7-methoxy-1H-indazol-6-yl)amino)-N-(methyl-d3)nicotinamide] was 108 nM.
The value for `[2H]C([2H])([2H])NC(=O)c1cnc(NC(=O)C2CC2)cc1Nc1cn(C([2H])([2H])[2H])c2ccn(C(C)C(F)(F)F)c(=O)c12` (centres unmarked) [Example 199, 6-(Cyclopropanecarboxamido)-N-(methyl-d3)-4-((1-(methyl-d3)-4-oxo-5-(1,1,1-trifluoropropan-2-yl)-4,5-dihydro-1H-pyrrolo[3,2-c]pyridin-3-yl)amino)nicotinamide] was 175 nM; that for `CNC(=O)c1cnc(NC(=O)C2CC2)nc1Nc1cn(C)c2ccn(C)c(=O)c12` [Example 1, 2-(Cyclopropanecarboxamido)-4-((1,5-dimethyl-4-oxo-4,5-dihydro-1H-pyrrolo[3,2-c]pyridin-3-yl)amino)-N-methylpyrimidine-5-carboxamide] was 483 nM; that for `[2H]C([2H])([2H])NC(=O)c1nnc2cc1Nc1cc(cc(-c3ncn(C4CC4)n3)c1OC)COCc1cc(F)cc(n1)N2` [Example 88, 11-(1-Cyclopropyl-1H-1,2,4-triazol-3-yl)-19-fluoro-10-methoxy-N-(methyl-d3)-15-oxa-2,4,5,8,21-pentaazatetracyclo[15.3.1.1^{3,7}.1^{9,13}]tricosa-1(21),3,5,7(23),9(22),10,12,17,19-nonaene-6-carboxamide] was 46.9 nM.
Regarding `[2H]C([2H])([2H])NC(=O)c1cnc(NC(=O)C2CC2)cc1Nc1csc2c(C)nn(CC)c(=O)c12` [Example 187, 6-(Cyclopropanecarboxamido)-4-((5-ethyl-7-methyl-4-oxo-4,5-dihydrothieno[2,3-d]pyridazin-3-yl)amino)-N-(methyl-d3)nicotinamide], the GI50 turned out to be 442 nM.
Turning to `CCn1ncc2ccc(Nc3ccnc(NC(=O)C4CC4)c3)c(OC)c21` [Example 237, N-(4-((1-ethyl-7-methoxy-1H-indazol-6-yl)amino)pyridin-2-yl)cyclopropanecarboxamide], the GI50 was determined as 4070 nM.
Regarding `CNC(=O)c1cnc(Nc2ccc(F)cn2)nc1Nc1cccc(-c2ncn(C)n2)c1OC` [Example 5, 2-((5-Fluoropyridin-2-yl)amino)-4-((2-methoxy-3-(1-methyl-1H-1,2,4-triazol-3-yl)phenyl)amino)-N-methylpyrimidine-5-carboxamide], the GI50 came to 1350 nM.
The result for `[2H]C([2H])([2H])NC(=O)c1cnc(NC(=O)C2CC2)cc1Nc1cn(C)c2ccn(CCOC)c(=O)c12` [Example 112, 6-(Cyclopropanecarboxamido)-4-((5-(2-methoxyethyl)-1-methyl-4-oxo-4,5-dihydro-1H-pyrrolo[3,2-c]pyridin-3-yl)amino)-N-(methyl-d3)nicotinamide] reads 477 nM; that for `COC(=O)c1cnc(NC(=O)C2CC2)cc1Nc1csc2c(C#N)cn(C)c(=O)c12` [Example 186, Methyl 4-((7-cyano-5-methyl-4-oxo-4,5-dihydrothieno[3,2-c]pyridin-3-yl)amino)-6-(cyclopropanecarboxamido)nicotinate], 309 nM; that for `CCn1cc(Nc2cc(NC(=O)C3CC3)ncc2C(=O)NC)c2c(=O)n([C@H](C)C(F)(F)F)cnc21` (single isomer, unassigned) [Example 254A, (R*)-6-(cyclopropanecarboxamido)-4-((7-ethyl-4-oxo-3-(1,1,1-trifluoropropan-2-yl)-4,7-dihydro-3H-pyrrolo[2,3-d]pyrimidin-5-yl)amino)-N-(methyl-d3)nicotinamide], 179 nM.
`[2H]C([2H])([2H])NC(=O)c1cnc(Nc2ccc(F)cc2)nc1Nc1csc2ccn(C)c(=O)c12` [Example 29, 2-((4-Fluorophenyl)amino)-N-(methyl-d3)-4-((5-methyl-4-oxo-4,5-dihydrothieno [3,2-c]pyridin-3-yl)amino) pyrimidine-5-carboxamide]: the GI50 was above 20000 nM.
With `[2H]C([2H])([2H])NC(=O)c1cnc(NC(=O)[C@H]2C[C@@H](C#N)C2)cc1Nc1ccc2cnn(CC)c2c1OC` [Example 128A, 6-((Cis)-3-cyanocyclobutane-1-carboxamido)-4-((1-ethyl-7-methoxy-1H-indazol-6-yl)amino)-N-(methyl-d3)nicotinamide], the GI50 amounted to 736 nM.
Consider `[2H]C([2H])([2H])NC(=O)c1cnc(NC(=O)C2CC2)cc1Nc1ccc2cnn(CCOC)c2c1OC` [Example 130, 6-(Cyclopropanecarboxamido)-4-((7-methoxy-1-(2-methoxyethyl)-1H-indazol-6-yl)amino)-N-(methyl-d3)nicotinamide], for which the GI50 is 357 nM.
The result for `CCn1cc(Nc2cc(NC(=O)C3CC3)ncc2C(=O)NC)c2c(=O)n([C@@H](C)C(F)(F)F)cnc21` (single isomer, unassigned) [Example 254B, (S*)-6-(cyclopropanecarboxamido)-4-((7-ethyl-4-oxo-3-(1,1,1-trifluoropropan-2-yl)-4,7-dihydro-3H-pyrrolo[2,3-d]pyrimidin-5-yl)amino)-N-(methyl-d3)nicotinamide] reads 934 nM.
The result for `[2H]C([2H])([2H])NC(=O)c1cnc(NC(=O)C2CC2)cc1Nc1cn(C)c2ccn(CC=C)c(=O)c12` [Example 109, 4-((5-Allyl-1-methyl-4-oxo-4,5-dihydro-1H-pyrrolo[3,2-c]pyridin-3-yl)amino)-6-(cyclopropanecarboxamido)-N-(methyl-d3)nicotinamide] reads 147 nM.
Take `[2H]C([2H])([2H])NC(=O)c1cnc(NC(=O)C2CC2)cc1Nc1cn(C)c2ccn(-c3cc(C)n(C)n3)c(=O)c12` [Example 119, 6-(Cyclopropanecarbonylamino)-4-[[5-(1,5-dimethylpyrazol-3-yl)-1-methyl-4-oxo-pyrrolo[3,2-c]pyridin-3-yl]amino]-N-(methyl-d3)pyridine-3-carboxamide]: the GI50 was found to be 1510 nM.
The value for `[2H]C([2H])([2H])NC(=O)c1cnc(NC(=O)C2CC2)cc1Nc1cn(C)c2ccn(C3CCC3)c(=O)c12` [Example 111, 4-((5-Cyclobutyl-1-methyl-4-oxo-4,5-dihydro-1H-pyrrolo[3,2-c]pyridin-3-yl)amino)-6-(cyclopropanecarboxamido)-N-(methyl-d3)nicotinamide] was 154 nM.
Consider `CNC(=O)c1cnc(NC(=O)C2CC2)cc1Nc1cn(C)c2ccn(C(C)C)c(=O)c12` [Example 50, 6-(Cyclopropanecarboxamido)-4-((5-isopropyl-1-methyl-4-oxo-4,5-dihydro-1H-pyrrolo[3,2-c]pyridin-3-yl)amino)-N-methylnicotinamide], for which the GI50 worked out at 371 nM.
With `CNC(=O)c1cnc(NC(=O)C2CC2)cc1Nc1cccc(OC2CCOCC2)c1OC` [Example 13, 6-(Cyclopropanecarboxamido)-4-((2-methoxy-3-((tetrahydro-2H-pyran-4-yl)oxy)phenyl)amino)-N-methylnicotinamide], the GI50 is 6410 nM.
The result for `CNC(=O)c1cnc(NC(=O)C2CC2)nc1Nc1cccc(OC2CCOCC2)c1OC` [Example 7, 2-(Cyclopropanecarboxamido)-4-((2-methoxy-3-((tetrahydro-2H-pyran-4-yl)oxy)phenyl)amino)-N-methylpyrimidine-5-carboxamide] reads 8020 nM; that for `[2H]C([2H])([2H])NC(=O)c1cnc(NC(=O)C2CC2)cc1Nc1csc2cnn(C(C)CC)c(=O)c12` (centres unmarked) [Example 180, 4-((5-(Sec-butyl)-4-oxo-4,5-dihydrothieno[2,3-d]pyridazin-3-yl)amino)-6-(cyclopropanecarboxamido)-N-(methyl-d3)nicotinamide], 1350 nM; that for `[2H]C([2H])([2H])NC(=O)c1cnc2cc1Nc1cc(cc(-c3ncn(C4CC4)n3)c1OC)COCc1cc(F)cc(n1)N2` [Example 89, 11-(1-Cyclopropyl-1H-1,2,4-triazol-3-yl)-19-fluoro-10-methoxy-N-(methyl-d3)-15-oxa-2,4,8,21-tetraazatetracyclo[15.3.1.1^{3,7}.1^{9,13}]tricosa-1(21),3,5,7(23),9(22),10,12,17,19-nonaene-6-carboxamide], 32.2 nM.
The result for `CNC(=O)c1cnc(Nc2ccc(F)cc2)nc1Nc1cccc(OC2CCOCC2)c1OC` [Example 6, 2-((4-Fluorophenyl)amino)-4-((2-methoxy-3-((tetrahydro-2H-pyran-4-yl)oxy)phenyl)amino)-N-methylpyrimidine-5-carboxamide] reads 897 nM.
